Experimental data as given in ChEMBL document CHEMBL5346900, “Treatment of allergy: Overview of synthetic anti-allergy small molecules in medicinal chemistry” (Eur J Med Chem, 2023).

What was measured:
Histamine H4 receptor = Histamine H4 receptor (Homo sapiens, UniProt Q9H3N8); assay: Binding affinity to histamine H4 receptor (unknown origin) assessed as inhibition constant
Leukotriene C4 synthase = target: T1, Leukotriene C4 synthase (Homo sapiens, UniProt Q16873); assay: Inhibition of LTC4 (unknown origin)
T1 sequence (Q16873 whole entry): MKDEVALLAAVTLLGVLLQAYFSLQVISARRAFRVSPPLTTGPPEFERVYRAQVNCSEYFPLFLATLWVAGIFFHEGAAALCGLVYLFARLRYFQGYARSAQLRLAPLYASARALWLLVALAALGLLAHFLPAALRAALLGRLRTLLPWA

[1] = target: T2, Cysteinyl leukotriene receptor 1 (Cavia porcellus, UniProt Q2NNR5); assay: Inhibition of guinea pig leukotriene D4
T2 sequence (Q2NNR5 whole entry): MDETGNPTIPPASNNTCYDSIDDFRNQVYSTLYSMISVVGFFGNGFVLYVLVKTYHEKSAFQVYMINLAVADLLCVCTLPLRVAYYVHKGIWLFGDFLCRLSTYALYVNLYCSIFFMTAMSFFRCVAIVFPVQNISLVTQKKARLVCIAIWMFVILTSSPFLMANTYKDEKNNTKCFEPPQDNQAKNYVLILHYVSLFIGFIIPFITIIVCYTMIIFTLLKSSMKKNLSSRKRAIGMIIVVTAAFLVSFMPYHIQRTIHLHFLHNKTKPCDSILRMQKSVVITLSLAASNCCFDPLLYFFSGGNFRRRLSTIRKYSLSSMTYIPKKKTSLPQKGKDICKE

[2] = Half life in Sprague-Dawley rat at 3 mg/kg, iv measured by LC/MS analysis; type: ADME, organism-based; details: in vivo

Ki (Histamine H4 receptor) [nM]	IC50 (Leukotriene C4 synthase) [nM]	also measured	Structure (SMILES)
4.9			O=C(c1cc2ccccc2[nH]1)N1CCNCC1
	5000		Oc1ccc(CCNC(=S)Nc2ccc(Br)cn2)cc1
	5000		S=C(NCCc1c[nH]c2ccccc12)Nc1ccc(Cl)cn1
27			CN1CCN(C(=O)c2nc3cc(Cl)ccc3[nH]2)CC1
		IC50 [1]: 229 nM	Cn1nccc1-c1ccc(Sc2ccc(C3(C(N)=O)CCOCC3)cc2)cc1
4.8			CN1CCN(c2cc(-c3ccc(Cl)cc3)nc(N)n2)CC1
	1600		Cc1cccc(NC(=S)NC(C)c2cccc3ccccc23)n1 (configuration not stated)
	2		CCOC(=O)Cc1csc(NC(=S)NC(C)c2cccc3ccccc23)n1 (configuration not stated)
	5		Cc1ccc(NC(=S)NC(C)c2cccc3ccccc23)nc1 (configuration not stated)
		half-life [2]: 48 min	CN1CCN(C(=O)c2cc3cc(Cl)ccc3[nH]2)CC1 [JNJ-7777120]
8.4			Cc1cc(C)c2nc(-c3cnc(NCCCC4CCN(C)CC4)nc3C)[nH]c2c1 [TOREFORANT]
		IC50 [1]: 300 nM	COC1(c2cc(F)cc(OCc3ccc4c(ccc(=O)n4C)c3)c2)CCOCC1 [ZD-2138]
